Measurements from US20240150333A1, “TAF1 INHIBITORS” (H. LEE MOFFITT CANCER CENTER AND RESEARCH INSTITUTE, INC., priority 2020, published 2024).
Entries after “also recorded” stand apart in the source; their conditions may differ.

Key:
[1] = target: T1, TAF1-2 (TAF1 BD2) (Homo sapiens, UniProt P21675); assay: Isothermal titration calorimetry (ITC); assay type: binding; conditions: Table 3; 288.15 K
T1 construct: BD2 (residues 1501-1635); His6 (TEV-cleavable) (cleaved yes); host or cells: E. coli BL21 (DE3)
T1 sequence (P21675 1501-1635 isoform P21675-1): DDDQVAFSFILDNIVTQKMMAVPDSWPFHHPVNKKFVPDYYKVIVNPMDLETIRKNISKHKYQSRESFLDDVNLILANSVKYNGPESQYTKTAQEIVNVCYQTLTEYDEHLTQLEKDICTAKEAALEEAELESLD

[2] = system: panel of 32 bromodomains; assay: Profiling across a panel of 32 bromodomains (DiscoveRx), overall statement; assay type: binding, human; conditions: 20 μM concentration
[3] = target: T2, TAF1-T (TAF1 tandem bromodomain, BD1 and BD2) (Homo sapiens, UniProt P21675); assay: Differential scanning fluorimetry (DSF) thermal shift; assay type: binding
T2 construct: tandem bromodomain (residues 1373-1635); His6 (TEV-cleavable) (cleaved yes); host or cells: E. coli BL21 (DE3)
T2 sequence (P21675 1373-1635 isoform P21675-1): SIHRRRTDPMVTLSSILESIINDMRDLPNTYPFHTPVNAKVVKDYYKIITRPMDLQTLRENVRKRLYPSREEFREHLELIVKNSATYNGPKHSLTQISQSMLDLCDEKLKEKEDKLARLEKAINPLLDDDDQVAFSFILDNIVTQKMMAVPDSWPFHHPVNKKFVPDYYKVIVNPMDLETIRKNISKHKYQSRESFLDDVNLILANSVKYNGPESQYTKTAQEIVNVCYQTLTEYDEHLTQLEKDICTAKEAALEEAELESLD

[4] = target: T3, TAF1-T (TAF1 tandem bromodomain) (Homo sapiens, UniProt P21675); assay: Isothermal titration calorimetry (ITC); assay type: binding; conditions: Table 3; 298.15 K
T3 construct: tandem bromodomain (residues 1373-1635); His6 (TEV-cleavable) (cleaved yes); host or cells: E. coli BL21 (DE3)
T3 sequence (P21675 1373-1635 isoform P21675-1): T2 sequence (P21675 1373-1635 isoform P21675-1)

[5] = target: T1, TAF1-2 (TAF1 BD2); assay: Differential scanning fluorimetry (DSF) thermal shift; assay type: binding
[6] = system: A549 lung cancer cells; assay: p53 pathway markers by western blot in A549 cells; assay type: cell-based, human
[7] = target: T4, BRPF2/BRD1 (Homo sapiens, UniProt O95696); assay: Bromoscan selectivity profiling (DiscoveRx); assay type: binding; conditions: at 20,000 nM
T4 construct: 32 bromodomains (by DiscoveRx); purchased DiscoveRx (BromoScan service)
Protocol: (§1) qPCR-based BRD binding assay. Another method for the determination of dissociation constants of BRD-ligand complexes is offered by DiscoveRx Corp. The assay is based on competition between test compound and immobilized high-affinity ligand for binding to the KAc site of BRDs. The amount of TAF1 remaining on an immobilized high-affinity ligand in the presence of ligand is measured using a quantitative real-time polymerase chain reaction (qPCR) method that detects the associated DNA label tagged to the BRD.
(§2) Inhibitor selectivity assays To assess target selectivity, compounds with highest biochemical and cellular activities can be profiled against panels of BRDs and kinases using the services of DiscoveRx and/or Reaction biology, as we have done previously.

[8] = target: T5, ATAD2B (Homo sapiens, UniProt Q9ULI0); assay: Bromoscan selectivity profiling (DiscoveRx); assay type: binding; conditions: at 20,000 nM
T5 construct: 32 bromodomains (by DiscoveRx); purchased DiscoveRx (BromoScan service)
Protocol: as §1, §2

[9] = target: T6, BRD2(2) (Homo sapiens, UniProt P25440); assay: Bromoscan selectivity profiling (DiscoveRx); assay type: binding; conditions: at 20,000 nM
T6 construct: 32 bromodomains (by DiscoveRx); purchased DiscoveRx (BromoScan service)
Protocol: as §1, §2

[10] = target: T7, BAZ2A (Homo sapiens, UniProt Q9UIF9); assay: Bromoscan selectivity profiling (DiscoveRx); assay type: binding; conditions: at 20,000 nM
T7 construct: 32 bromodomains (by DiscoveRx); purchased DiscoveRx (BromoScan service)
Protocol: as §1, §2

[11] = target: T8, TAF1L(2) (Homo sapiens, UniProt Q8IZX4); assay: Bromoscan selectivity profiling (DiscoveRx); assay type: binding; conditions: at 20,000 nM
T8 construct: purchased DiscoveRx
Protocol: as §1, §2

[12] = target: T9, GCN5L(2) (Homo sapiens, UniProt Q92830); assay: Bromoscan selectivity profiling (DiscoveRx); assay type: binding; conditions: at 20,000 nM
T9 construct: purchased DiscoveRx
Protocol: as §1, §2

[13] = target: T10, TAF1(2) (Homo sapiens, UniProt P21675); assay: Bromoscan selectivity profiling (DiscoveRx); assay type: binding; conditions: at 20,000 nM
T10 construct: purchased DiscoveRx
Protocol: as §1, §2

[14] = target: T11, BRD4(1) (Homo sapiens, UniProt O60885); assay: Bromoscan selectivity profiling (DiscoveRx); assay type: binding; conditions: at 20,000 nM
T11 construct: 32 bromodomains (by DiscoveRx); purchased DiscoveRx (BromoScan service)
Protocol: as §1, §2

[15] = target: T12, BRD3(1) (Homo sapiens, UniProt Q15059); assay: Bromoscan selectivity profiling (DiscoveRx); assay type: binding; conditions: at 20,000 nM
T12 construct: 32 bromodomains (by DiscoveRx); purchased DiscoveRx (BromoScan service)
Protocol: as §1, §2

[16] = target: T13, ATAD2A (Homo sapiens, UniProt Q6PL18); assay: Bromoscan selectivity profiling (DiscoveRx); assay type: binding; conditions: at 20,000 nM
T13 construct: 32 bromodomains (by DiscoveRx); purchased DiscoveRx (BromoScan service)
Protocol: as §1, §2

[17] = target: T14, BRDT(2) (Homo sapiens, UniProt Q58F21); assay: Bromoscan selectivity profiling (DiscoveRx); assay type: binding; conditions: at 20,000 nM
T14 construct: BRDT(2); purchased DiscoveRx
Protocol: as §1, §2

[18] = target: T15, TRIM24(PHD, Bromo.) (Homo sapiens, UniProt O15164); assay: Bromoscan selectivity profiling (DiscoveRx); assay type: binding; conditions: at 20,000 nM
T15 construct: TRIM24(PHD, Bromo.); purchased DiscoveRx
Protocol: as §1, §2

[19] = target: T16, PBRM1(5) (Homo sapiens, UniProt Q86U86); assay: Bromoscan selectivity profiling (DiscoveRx); assay type: binding; conditions: at 20,000 nM
T16 construct: PBRM1(5); purchased DiscoveRx
Protocol: as §1, §2

[20] = target: T17, BAZ2B (Homo sapiens, UniProt Q9UIF8); assay: Bromoscan selectivity profiling (DiscoveRx); assay type: binding; conditions: at 20,000 nM
T17 construct: 32 bromodomains (by DiscoveRx); purchased DiscoveRx (BromoScan service)
Protocol: as §1, §2

[21] = target: T18, WDR9(2) (Homo sapiens, UniProt Q9NSI6); assay: Bromoscan selectivity profiling (DiscoveRx); assay type: binding; conditions: at 20,000 nM
T18 construct: purchased DiscoveRx
Protocol: as §1, §2

[22] = target: T19, BRPF1 (Homo sapiens, UniProt P55201); assay: Bromoscan selectivity profiling (DiscoveRx); assay type: binding; conditions: at 20,000 nM
T19 construct: purchased DiscoveRx
Protocol: as §1, §2

[23] = target: T20, PCAF (Homo sapiens, UniProt Q92831); assay: Bromoscan selectivity profiling (DiscoveRx); assay type: binding; conditions: at 20,000 nM
T20 construct: purchased DiscoveRx
Protocol: as §1, §2

[24] = target: T21, BRD4(2) (Homo sapiens, UniProt O60885); assay: Bromoscan selectivity profiling (DiscoveRx); assay type: binding; conditions: at 20,000 nM
T21 construct: purchased DiscoveRx
Protocol: as §1, §2

[25] = target: T22, SMARCA4 (Homo sapiens, UniProt P51532); assay: Bromoscan selectivity profiling (DiscoveRx); assay type: binding; conditions: at 20,000 nM
T22 construct: purchased DiscoveRx
Protocol: as §1, §2

[26] = target: T23, SMARCA2 (Homo sapiens, UniProt P51531); assay: Bromoscan selectivity profiling (DiscoveRx); assay type: binding; conditions: at 20,000 nM
T23 construct: purchased DiscoveRx
Protocol: as §1, §2

[27] = target: T24, BRD7 (Homo sapiens, UniProt Q9NPI1); assay: Bromoscan selectivity profiling (DiscoveRx); assay type: binding; conditions: at 20,000 nM
T24 construct: purchased DiscoveRx
Protocol: as §1, §2

[28] = Table 2 (Example 2), 100 μM compound, standard deviation from two experiments
[29] = Table 2 (Example 2), 100 μM compound, standard deviation from two experiments, 100 µM

T12 sequence (Q15059 34-140 limits assumed): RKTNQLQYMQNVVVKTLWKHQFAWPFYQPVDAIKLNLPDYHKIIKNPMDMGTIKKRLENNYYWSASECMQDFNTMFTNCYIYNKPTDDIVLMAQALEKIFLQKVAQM
T19 sequence (P55201 628-732 limits assumed): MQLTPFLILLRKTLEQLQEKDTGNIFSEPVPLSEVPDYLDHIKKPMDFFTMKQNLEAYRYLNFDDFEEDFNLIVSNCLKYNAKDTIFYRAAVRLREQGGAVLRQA
T18 sequence (Q9NSI6 1313-1418 limits assumed): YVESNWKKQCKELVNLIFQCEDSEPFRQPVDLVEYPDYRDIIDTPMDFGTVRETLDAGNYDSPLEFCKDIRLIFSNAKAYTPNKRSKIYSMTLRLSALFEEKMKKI
T16 sequence (Q86U86 653-763 limits assumed): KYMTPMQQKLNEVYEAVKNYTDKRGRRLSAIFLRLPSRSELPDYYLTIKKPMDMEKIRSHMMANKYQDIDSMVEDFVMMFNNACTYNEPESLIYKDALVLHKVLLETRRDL
T24 sequence (Q9NPI1 131-235 limits assumed): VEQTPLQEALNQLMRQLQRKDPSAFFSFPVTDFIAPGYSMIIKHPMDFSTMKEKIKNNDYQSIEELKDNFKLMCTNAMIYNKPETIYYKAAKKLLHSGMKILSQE
T6 sequence (P25440 344-453 limits assumed): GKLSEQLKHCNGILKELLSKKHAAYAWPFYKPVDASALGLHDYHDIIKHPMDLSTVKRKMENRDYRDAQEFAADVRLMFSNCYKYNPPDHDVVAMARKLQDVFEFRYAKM
T5 sequence (Q9ULI0 951-1066 limits assumed): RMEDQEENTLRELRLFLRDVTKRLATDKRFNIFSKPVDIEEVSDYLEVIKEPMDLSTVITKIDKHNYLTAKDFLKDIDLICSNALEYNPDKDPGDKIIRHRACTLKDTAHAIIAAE
T20 sequence (Q92831 723-827 limits assumed): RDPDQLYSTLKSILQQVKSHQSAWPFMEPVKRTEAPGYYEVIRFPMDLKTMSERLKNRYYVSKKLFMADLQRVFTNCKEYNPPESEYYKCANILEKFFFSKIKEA
T22 sequence (P51532 1453-1564 limits assumed): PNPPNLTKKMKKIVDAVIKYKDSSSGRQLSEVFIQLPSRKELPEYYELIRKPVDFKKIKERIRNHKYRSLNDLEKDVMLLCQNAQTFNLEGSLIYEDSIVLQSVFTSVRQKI
T13 sequence (Q6PL18 980-1092 limits assumed): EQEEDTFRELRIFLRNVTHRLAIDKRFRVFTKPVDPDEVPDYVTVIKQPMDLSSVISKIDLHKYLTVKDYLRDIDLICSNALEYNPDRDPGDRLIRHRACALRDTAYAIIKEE
T8 sequence (Q8IZX4 1517-1626 limits assumed): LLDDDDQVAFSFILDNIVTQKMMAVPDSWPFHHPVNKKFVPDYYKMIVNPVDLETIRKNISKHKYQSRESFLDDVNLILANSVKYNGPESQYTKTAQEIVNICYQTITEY
T23 sequence (P51531 1378-1506 limits assumed): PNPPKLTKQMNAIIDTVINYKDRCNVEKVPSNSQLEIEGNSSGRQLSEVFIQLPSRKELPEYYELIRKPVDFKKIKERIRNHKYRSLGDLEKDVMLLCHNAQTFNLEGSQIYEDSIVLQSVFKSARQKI
T9 sequence (Q92830 728-832 limits assumed): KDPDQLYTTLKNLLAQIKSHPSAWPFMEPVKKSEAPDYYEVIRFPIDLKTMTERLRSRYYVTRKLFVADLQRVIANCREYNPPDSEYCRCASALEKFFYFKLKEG
T7 sequence (Q9UIF9 1793-1897 limits assumed): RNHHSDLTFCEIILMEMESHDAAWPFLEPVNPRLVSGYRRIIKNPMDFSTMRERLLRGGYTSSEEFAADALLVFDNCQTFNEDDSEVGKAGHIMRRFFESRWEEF
T17 sequence (Q9UIF8 2060-2164 limits assumed): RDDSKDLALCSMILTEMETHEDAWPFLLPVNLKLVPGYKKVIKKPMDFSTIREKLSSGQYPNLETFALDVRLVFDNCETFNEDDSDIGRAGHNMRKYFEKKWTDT
T4 sequence (O95696 562-666 limits assumed): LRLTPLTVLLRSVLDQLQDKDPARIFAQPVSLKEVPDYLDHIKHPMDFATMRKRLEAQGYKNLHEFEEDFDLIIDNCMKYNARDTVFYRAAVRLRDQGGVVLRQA
T15 sequence (O15164 824-1006 limits assumed): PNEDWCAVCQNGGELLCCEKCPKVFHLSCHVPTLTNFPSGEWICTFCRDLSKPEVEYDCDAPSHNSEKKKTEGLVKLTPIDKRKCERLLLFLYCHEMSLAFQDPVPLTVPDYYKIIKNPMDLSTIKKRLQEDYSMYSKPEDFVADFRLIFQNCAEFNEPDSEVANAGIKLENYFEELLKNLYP

Q: What does the source list for `C[C@@H]1COCCN1c1cc(C2([S@](C)(=N)=O)CC2)nc(-c2cc[nH]c3nccc2-3)n1` [AZD6738]?
A: ITC N (stoichiometry), TAF1-2 [1]: 0.99; ITC TΔS, TAF1-2 [1]: 13.6 kJ/mol; ITC ΔH, TAF1-2 [1]: -18.2 kJ/mol; Interaction with BRD2-2, BRD3-2, BRD4-2, CECR2 and WDR9-2 [2]: interacted weakly; also recorded: weakly interacted; DSF (ΔTm, ° C.) TAF1-T ([3]; Table 1 (Example 1)): 5.8 ± 0.5 °C; ΔTm at 100 µM [3, 28]: 3.1 °C; DSF (ΔTm, ° C.) TAF1-T [3, 29]: 3.2 ± 0.1 °C; ITC N (stoichiometry), TAF1-T [4]: 1.11; ITC TΔS, TAF1-T [4]: 9.46 kJ/mol; ITC ΔH, TAF1-T [4]: -24.4 kJ/mol; DSF (ΔTm, ° C.) TAF1-2 ([5]; Table 1 (Example 1)): 2.9 ± 0.2 °C; ΔTm at 100 µM [5, 28]: 3.2 °C; DSF (ΔTm, ° C.) TAF1-2 [5, 29]: 3.1 ± 0.1 °C; p53 and p21 levels ([6]; A549, 10 μM, 24 h, western blot): modest increase; MDMX levels ([6]; A549, western blot): modest effect; inhibition at 20 µM [7]: 6%; inhibition at 20 µM [8]: 0%; inhibition at 20 µM [9]: 84%; inhibition at 20 µM [10]: 0%; inhibition at 20 µM [11]: 98%; inhibition at 20 µM [12]: 27%; inhibition at 20 µM [13]: 99.8%; inhibition at 20 µM [14]: 50%; inhibition at 20 µM [15]: 60%; inhibition at 20 µM [16]: 0%; inhibition at 20 µM [17]: 38%; inhibition at 20 µM [18]: 6%; inhibition at 20 µM [19]: 0%; inhibition at 20 µM [20]: 0%; inhibition at 20 µM [21]: 84%; inhibition at 20 µM [22]: 11%; inhibition at 20 µM [23]: 18%; inhibition at 20 µM [24]: 69%; inhibition at 20 µM [25]: 7%; inhibition at 20 µM [26]: 15%; inhibition at 20 µM [27]: 14%
